Reference: patent US4622387A, “8-methionine calcitonin” (Armour Pharmaceutical Co., priority 1985, dated 1986)
Where a SMILES comes first, the peptide text is derived from it. Bridges are numbered along the chain shown (N, C = ends).

How the values were obtained:
[1] = test system: serum calcium concentration
Method: Biological Assay Of Calcitonin Analogs In Vivo
The biological potency of [8-methionine]salmon calcitonin was determined by comparing the reduction of serum calcium concentration which followed administration by graded doses of [Met^8 ]SCT and synthetic salmon calcitonin standard. Rats were divided into four groups of seven animals, and each group was assigned at random to a dose of standard or test solution. Low and high doses were chosen from the linear portion of the dose-response curve. For the salmon calcitonin standard, the values were 0.7 and 2.1 mcg. peptide/100 g. body weight (BW). This dose approximates 3 and 9 MU/100 g. BW. Peptides were given by subcutaneous injection (0.2 ml/100 g. BW) and blood was withdrawn 1 hour later for serum calcium determination. Sera are processed and analyzed within two hours of collection. Results were analyzed within two hours of collection.

[2] = test system: serum calcium (hypocalcemic potency); conditions: Monikawa et al., Experientia 32(9), 1104-1106 (1976); cited from earlier work

Compound | hypocalcemic potency [2] | further results
CSCC[C@H](NC(=O)[C@@H]1CSSC[C@H](N)C(=O)N[C@@H](CO)C(=O)N[C@@H](CC(N)=O)C(=O)N[C@@H](CC(C)C)C(=O)N[C@@H](CO)C(=O)N[C@@H]([C@@H](C)O)C(=O)N1)C(=O)N[C@@H](CC(C)C)C(=O)NCC(=O)N[C@@H](CCCCN)C(=O)N[C@@H](CC(C)C)C(=O)N[C@@H](CO)C(=O)N[C@@H](CCC(N)=O)C(=O)N[C@@H](CCC(=O)O)C(=O)N[C@@H](CC(C)C)C(=O)N[C@@H](Cc1c[nH]cn1)C(=O)N[C@@H](CCCCN)C(=O)N[C@@H](CC(C)C)C(=O)N[C@@H](CCC(N)=O)C(=O)N[C@H](C(=O)N[C@@H](Cc1ccc(O)cc1)C(=O)N1CCC[C@H]1C(=O)N[C@@H](CCCNC(=N)N)C(=O)N[C@H](C(=O)N[C@@H](CC(N)=O)C(=O)N[C@H](C(=O)NCC(=O)N[C@@H](CO)C(=O)NCC(=O)N[C@H](C(=O)N1CCC[C@H]1C(N)=O)[C@@H](C)O)[C@@H](C)O)[C@@H](C)O)[C@@H](C)O [[Met^8]SCT, [8-methionine]salmon calcitonin] (H-CSNLSTCMLGKLSQELHKLQTYPRTNTGSGTP-NH2; disulfide 1-7) |  | biological potency ([1]; rat, in vivo, sc): 5500 IU/mg
CC(C)C[C@H](NC(=O)[C@H](CCCCN)NC(=O)CNC(=O)[C@H](CC(C)C)NC(=O)[C@@H](NC(=O)[C@@H]1CSSC[C@H](N)C(=O)N[C@@H](CO)C(=O)N[C@@H](CC(N)=O)C(=O)N[C@@H](CC(C)C)C(=O)N[C@@H](CO)C(=O)N[C@@H]([C@@H](C)O)C(=O)N1)C(C)C)C(=O)N[C@@H](CO)C(=O)N[C@@H](CCC(N)=O)C(=O)N[C@@H](CCC(=O)O)C(=O)N[C@@H](CC(C)C)C(=O)N[C@@H](Cc1c[nH]cn1)C(=O)N[C@@H](CCCCN)C(=O)N[C@@H](CC(C)C)C(=O)N[C@@H](CCC(N)=O)C(=O)N[C@H](C(=O)N[C@@H](Cc1ccc(O)cc1)C(=O)N1CCC[C@H]1C(=O)N[C@@H](CCCNC(=N)N)C(=O)N[C@H](C(=O)N[C@@H](CC(N)=O)C(=O)N[C@H](C(=O)NCC(=O)N[C@@H](CO)C(=O)NCC(=O)N[C@H](C(=O)N1CCC[C@H]1C(N)=O)[C@@H](C)O)[C@@H](C)O)[C@@H](C)O)[C@@H](C)O [standard salmon calcitonin, Salmon calcitonin] |  | potency content of the standard ([1]; standard salmon calcitonin, independently determined): greater than 4,000 IU/mg
(1,7-α-L-aminosuberic acid)eel calcitonin | about 3400 Iu/mg | 
eel calcitonin [synthetic eel calcitonin] | around 4300 Iu/mg | 
